From patent US20200375996A1, “METHOD OF TREATING NEURODEGENERATIVE DISORDERS BY RESCUING ALPHA-SYNUCLEIN TOXICITY” (D.E. Shaw Research, LLC, priority 2015, published 2020)

Legend:
[1] = tested on: α-synuclein-expressing yeast; assay: α-synuclein toxicity rescue in yeast (growth, OD600); assay type: cell-based; details: FIGS. 8A-8B
Protocol: Yeast Strains and culturing: Yeast strains expressing alpha-synuclein have been described in Cooper at. al, 2006. (Cooper A A, et al. Alpha-synuclein blocks ER-Golgi traffic and Rab1 rescues neuron loss in Parkinson's models. Science. 2006 Jul. 21; 313:324) Strains express multiple copies of alpha-synculein for galactose-inducible expression. […] Yeast were cultured in complete synthetic media (CSM) and an appropriate dropout (lacking histidine or uracil) to maintain plasmids if required. For galactose-induction experiments, overnight cultures were grown in CSM/2% glucose to saturation and diluted 1:20 into CSM/2% raffinose for ˜2 generations. Cultures were then diluted into CSM/2% galactose at an optimum OD600 for the experiment (see ‘Growth assays’).
(§1) Yeast Growth assays: Starting cultures for all dose-response assays were based on strains initially constructed in the lab to maintain homogeneity across experiments. All growth assays were carried out in 384 well format. Source plates were assembled in 96 well plates using multichannel pipettes to dilute rows in 1.6-fold serial dilutions of CSMGal. To these dilution series containing 2× final concentration of compound, 2×OD600 culture (in CSMGal) was dispensed with a multichannel pipette to achieve a final drug/culture mix with the desired OD600 and drug concentration. For WT yeast, the final starting OD600 was 0.01. For α-syn, the final starting OD600 was 0.02. Drug concentration ranges varied depending on efficacy, growth inhibition, and solubility in media. A Tecan EvoFreedom liquid handling robot was then used to transfer culture from 96 to 384 well format with each well being represented four times. Final well volume was 35 μL. Plates were then incubated in humidified containers at 30° C. for either 24 or 40 hours. Plates were then read with a Tecan Saphire plate reader at OD600.
Raw OD600 values were transformed to “Relative Growth” in WT cells or “% Maximum Rescue” in α-syn experiments. In WT cells, the well background was subtracted and all values were then normalized to 100% for the untreated condition. In α-syn rescue experiments, the well background was subtracted and the maximum rescue in the particular experiment was normalized to 100%.

WT control yeast strain = assay: Toxicity profile on WT control yeast strain (growth); assay type: cell-based; details: FIGS. 9A-9B
Protocol: as §1, with “A Tecan EvoFreedom liquid handling robot was then used to transfer culture from 96 to 384 well format with each well being represented four times. Final well volume was 35 μL. Plates were then incubated in humidified containers at 30° C. for either 24 or 40 hours.” left out
Raw OD600 values were transformed to “Relative Growth” in WT cells or “% Maximum Rescue” in α-syn experiments. […] All experimental data points were then calculated by (OD600Exp−OD600untreated/(OD600Max−OD600untreated)×100 to obtain rescue relative to maximum rescue observed. Dose-response curves were generated by nonlinear regression analysis using Prism Graphpad v. 6.0. In cases where the compounds began inhibiting growth, only points up to the maximum were used to fit the curve. Above that, points were directly connected and are always presented as dotted lines.

Sna3-GFP = assay: Immunoblot analysis of Sna3-GFP polyubiquitination in WT and α-syn cells; assay type: cell-based, yeast; details: FIG. 11B
Protocol: (§2) Protein analysis was performed in NoTox and HiTox strains with the compound treatment at indicated concentrations. Log phase CSM/2% raffinose cultures were induced with 2% galactose for 5 hours with DMSO or the compounds. Cultures were normalized to cell density and cell pellets prepared for SDS-PAGE. Cell pellets were boiled in SDS-loading dye for 15′, centrifuged, and resolved by 4-12% SDS-PAGE. CPY western blots were performed using culture conditions as described above. An anti-Cpy antibody (Invitrogen, A6428) was used at 1:5,000. Post-ER:ER ratios were quantitated using an IRDye800 secondary antibody (Li-Cor Odyssey, Rockland Immunochemicals) and scanned with the Li-Cor Odyssey imaging system. Significance was determined using a one-way ANOVA and Tukey's test of significance. From the same gel, total protein was detected by coomassie staining. Both blots and coomassie-stained gels were scanned using the Li-Cor Odyssey imaging system and quantitated. Significance was determined using a one-way ANOVA with Tukey's test of significance.
In WT Sna3-GFP cells, log phase CSMRaf cultures were shifted to galactose for 5 hours in the presence or absence of the compounds. Cell pellets were lysed in SDS-loading dye and Sna3-GFP cleavage monitored by Western blotting with an anti-GFP antibody. […]

Carboxypeptidase Y (CPY) = assay: Western blot of Carboxypeptidase Y (CPY) trafficking; assay type: cell-based, yeast; details: FIG. 11D
Protocol: as §2

[2] = tested on: aSyn-expressing yeast cells; assay: Morphological analysis of aSyn-expressing yeast cells; assay type: cell-based; details: 10 uM, galactose induction five hours, FIG. 10
Protocol: Raffinose cultures of α-syn expressing yeast cells were grown up to the logarithmic phase in raffinose. Cultures were induced with galactose for five hours in the presence or absence of the indication concentration of the compounds. In the present example, the identified compounds were present at a concentration of 10 uM. Cells were centrifuged, media discarded, and then fixed with 4% paraformaldehyde in 1×PBS for 1 hr. The fixed culture was centrifuged, and the pellet resuspended in 0.4% paraformaldehyde in 1×PBS and kept at 4° C.

[3] = tested on: K63 linkages in iPS derived human neurons; assay: K63-Ub linkages in human iPS derived neuronal cultures (immunoblot); assay type: cell-based; details: 5 μM for 12 hours, FIG. 13A
Protocol: (§3) Human HEK-293 or neuronal cells treated with the appropriate compounds, were washed twice with ice cold PBS and then 0.5 ml of Lysis buffer was added and cells were scraped off the 10 cm dish (1 ml for 15 cm).
(§4) Lysis buffer is 50 mM Tris/HCl pH 7.5, 1 mM EGTA, 1 mM EDTA, 0.5 or 1% (v/v) NP-40, 1 mM sodium orthovanadate, 50 mM NaF, 5 mM sodium pyrophosphate, 0.27 M sucrose, 10 mM sodium 2-glycerophosphate, 0.2 mM phenylmethylsulphonyl fluoride, 1 mM benzamidine, plus 100 mM iodoacetamide added fresh prior to lysis (weight powder, don't use a frozen stock solution) to inactivate deubiquitylase activities and add also pepstatin/aprotinin to inhibit proteases. Cell extracts were sonicated twice for 15 seconds each time and clarified by centrifugation at 14000 g for 15 min at 4° C. Supernatants were collected and filtered using a 0.45 uM MiniSart/Syringe. Next, protein concentrations were determined by Bradford procedure.
The avidity based K63 linkage sensor protein was based on Sims et. al, 2012. Briefly, avidity based K63 sensor Halo-fusion protein was expressed in an E. coli expression vector and covalently bound to Halo-tag beads [Magne® HaloTag® Beads, 20% Slurry; Cat #G7281]. […] After incubation, the beads were washed three times with 1 ml of Lysis buffer containing 500 mM NaCl and once with 0.5 ml of 10 mM Tris/HCl pH 8.0. […] The eluate is heated at 75° C. for 5 min and analysed by immuno-blotting using an anti-K63 linkage specific antibody (http://www.abcam.com/ubiquitin-linkage-specific-k63-epr8590-448-antibody-ab179434.html).
Pure neuronal cultures derived from human iPS cells were treated with DMSO, DES-2877, DES-4114 and #32 at 5 μM for 12 hours. […] Ubiquitylation site identification by mass spectrometry was performed as described Kim et al., (Systematic and quantitative assessment of the ubiquitin-modified proteome. Mol Cell. 2011; 44:325-340). and Sarraf et al., (Landscape of the PARKIN-dependent ubiquitylome in response to mitochondrial depolarization. Nature. 2013; 496:372-376).

[4] = tested on: K63 linkages in human HEK-293 cells; assay: Ubiquitin chain linkages in HEK-293 cells; assay type: cell-based; details: 5 μM for 12 hours, FIG. 13B
Protocol: as §3, §4
The avidity based K63 linkage sensor protein was based on Sims et. al, 2012. Briefly, avidity based K63 sensor Halo-fusion protein was expressed in an E. coli expression vector and covalently bound to Halo-tag beads [Magne® HaloTag® Beads, 20% Slurry; Cat #G7281]. […] The eluate is heated at 75° C. for 5 min and analysed by immuno-blotting using an anti-K63 linkage specific antibody (http://www.abcam.com/ubiquitin-linkage-specific-k63-epr8590-448-antibody-ab179434.html). […]

## COc1cc(Cl)cc(/C=N/Nc2nc(Nc3ccc(C)cc3Br)nc(N3CCOCC3)n2)c1O [DES-4114]
[1]
  rescue of aSyn toxicity in yeast (in words): most effective
WT control yeast strain
  toxicity on WT control yeast strain (in words): least toxic among active analogs
Sna3-GFP
  polyubiquitinated Sna3-GFP: increase
Carboxypeptidase Y (CPY)
  accumulation of CPY trafficking intermediates en route to the vacuole: increase
[2]
  morphology: vesicular intermediates in yeast cells: accumulation of vesicular intermediates
[3]
  K63 linkages in iPS derived human neurons: modest increase
[4]
  K63 linkages in human HEK-293 cells: modest increase
